From patent US10300023B1, “Stabilized assembled nanostructures for delivery of encapsulated agents” (The Brigham and Women's Hospital, Inc., priority 2015, dated 2019)

How the values were obtained:
[1] = tested on: PC3 (PC-3) human prostate cancer cells; assay: In vitro cytotoxicity (% metabolic activity) in PC3 cells; assay type: cell-based; conditions: n = 3
Protocol: (§1) Nanofiber cytotoxicity was studied in vitro in prostate cancer cells—PC3 and LNCaP.
(§2) FIG. 8A is a line graph showing the % metabolic activity of PC3 (PC-3) human prostate cancer cells incubated with a range of concentrations (μM) of a vitamin C solution for 48 hours (“Vit C 48 h”, black square) or of stabilized vitamin C-derived particles for 24 hours or 48 hours (“Vit C particles 24 h” (grey square) and “Vit C particles 48 h” (triangle), respectively). FIG. 8B is a line graph showing the % metabolic activity of LNCaP androgen-sensitive human prostate adenocarcinoma cells incubated with Vit C for 48 hours (black squares), Vit C particles for 24 hours (grey squares), and Vit C particles for 48 hours (triangles).
(§3) FIGS. 9A and 9B are line graphs showing the % metabolic activity of PC3 cells (FIG. 9A) and the % metabolic activity of LNCaP cells (FIG. 9B) when incubated with a range of concentrations (μM) of stabilized vitamin C-derived particles (“Vit C particles”, grey squares), of free docetaxel (“free DTX”, diamonds), or of stabilized vitamin C-derived particles encapsulating docetaxel (“DTX loaded Vit C particles”, triangles).

[2] = tested on: LNCaP androgen-sensitive human prostate adenocarcinoma cells; assay: In vitro cytotoxicity (% metabolic activity) in LNCaP cells; assay type: cell-based; conditions: n = 3
Protocol: as §1, §2, §3

`CC(=O)O[C@@]12CO[C@@H]1C[C@H](O)[C@@]1(C)C(=O)[C@H](O)C3=C(C)[C@@H](OC(=O)[C@H](O)[C@@H](NC(=O)OC(C)(C)C)c4ccccc4)C[C@@](O)([C@@H](OC(=O)c4ccccc4)[C@H]21)C3(C)C` [Free DTX, docetaxel] showed an IC50 [1] of 620 nM and an IC50 [2] of 3600 nM.
